Measurements reported in ChEMBL document CHEMBL1153895, “Discovery of 4,6-bis-anilino-1H-pyrrolo[2,3-d]pyrimidines: potent inhibitors of the IGF-1R receptor tyrosine kinase” (Bioorg Med Chem Lett, 2009).

What was measured:
[1] = target: T1, Insulin-like growth factor 1 receptor (Homo sapiens, UniProt P08069); test: Inhibition of human IGF1R phosphorylation expressed in HEK293 cells by DELFIA; assay type: cell-based
[2] = target: T1, Insulin-like growth factor 1 receptor; test: Inhibition of GST-tagged human IGF1R expressed in Sf9 cells by Wallac Victor fluorometer
[3] = target: Aurora kinase B (Homo sapiens, UniProt Q96GD4); test: Inhibition of Aurora B
Chain of Aurora kinase B (Q96GD4 whole entry): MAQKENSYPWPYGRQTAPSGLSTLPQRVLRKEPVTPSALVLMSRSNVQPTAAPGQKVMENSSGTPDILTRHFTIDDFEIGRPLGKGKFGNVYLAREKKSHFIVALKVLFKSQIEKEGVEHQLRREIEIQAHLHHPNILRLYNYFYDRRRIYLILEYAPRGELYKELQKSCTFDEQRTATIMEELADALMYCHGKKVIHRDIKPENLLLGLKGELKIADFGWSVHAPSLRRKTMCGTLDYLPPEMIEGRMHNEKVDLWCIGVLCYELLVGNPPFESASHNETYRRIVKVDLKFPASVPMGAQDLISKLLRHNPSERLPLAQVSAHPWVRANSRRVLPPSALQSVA

[4] = Cmax in rat at 2.3mg/kg, iv and 10.7 mg/kg, po; assay type: ADME, organism-based; parameters: dose 10.7 mg/kg, route oral; conditions: in vivo
[5] = test system: Rattus norvegicus; test: Dose normalized AUC in rat at 2.3 mg/kg, iv and 10.7 mg/kg, po; assay type: ADME, organism-based; conditions: in vivo
[6] = Clearance in rat at 2.3 mg/kg, iv; assay type: ADME, organism-based; parameters: dose 2.3 mg/kg, route intravenous; conditions: in vivo
[7] = test system: Rattus norvegicus; test: Volume of distribution at steady state in rat at 2.3mg/kg, iv and 10.7 mg/kg, po; assay type: ADME, organism-based; parameters: dose 10.7 mg/kg, route oral; conditions: in vivo
[8] = Bioavailability in rat at 2.3 mg/kg, iv and 10.7 mg/kg, po; assay type: ADME, organism-based; conditions: in vivo
[9] = Cmax in rat at 4.2mg/kg, iv and 13.6 mg/kg, po; assay type: ADME, organism-based; parameters: dose 13.6 mg/kg, route oral; conditions: in vivo
[10] = Clearance in rat at 4.2 mg/kg, iv; assay type: ADME, organism-based; parameters: dose 4.2 mg/kg, route intravenous; conditions: in vivo
[11] = test system: Rattus norvegicus; test: Volume of distribution at steady state in rat at 4.2mg/kg, iv and 13.6 mg/kg, po; assay type: ADME, organism-based; parameters: dose 13.6 mg/kg, route oral; conditions: in vivo
[12] = test system: Rattus norvegicus; test: Dose normalized AUC in rat at 4.2 mg/kg, iv and 13.6 mg/kg, po; assay type: ADME, organism-based; conditions: in vivo
[13] = Bioavailability in rat at 4.2 mg/kg, iv and 13.6 mg/kg, po; assay type: ADME, organism-based; conditions: in vivo
[14] = Clearance in rat at 2.0 mg/kg, iv; assay type: ADME, organism-based; parameters: dose 2 mg/kg, route intravenous; conditions: in vivo
[15] = test system: Rattus norvegicus; test: Volume of distribution at steady state in rat at 2.0mg/kg, iv and 10.6 mg/kg, po; assay type: ADME, organism-based; parameters: dose 10.6 mg/kg, route oral; conditions: in vivo
[16] = Bioavailability in rat at 2.0 mg/kg, iv and 10.6 mg/kg, po; assay type: ADME, organism-based; conditions: in vivo
[17] = Cmax in rat at 2.0mg/kg, iv and 10.6 mg/kg, po; assay type: ADME, organism-based; parameters: dose 10.6 mg/kg, route oral; conditions: in vivo
[18] = test system: Rattus norvegicus; test: Dose normalized AUC in rat at 2.0 mg/kg, iv and 10.6 mg/kg, po; assay type: ADME, organism-based; conditions: in vivo
[19] = test system: Rattus norvegicus; test: Dose normalized AUC in rat at 2.1 mg/kg, iv and 9.2 mg/kg, po; assay type: ADME, organism-based; conditions: in vivo
[20] = Volume of distribution at steady state in rat at 2.1 mg/kg, iv and 9.2 mg/kg, po; assay type: ADME, organism-based; conditions: in vivo, read-out: Vdss
[21] = Cmax in rat at 2.1 mg/kg, iv and 9.2 mg/kg, po; assay type: ADME, organism-based; conditions: in vivo
[22] = Clearance in rat at 1.7 mg/kg, iv; assay type: ADME, organism-based; parameters: dose 1.7 mg/kg, route intravenous; conditions: in vivo
[23] = test system: Rattus norvegicus; test: Dose normalized AUC in rat at 1.7 mg/kg, iv and 10.5 mg/kg, po; assay type: ADME, organism-based; conditions: in vivo
[24] = Volume of distribution at steady state in rat at 1.7 mg/kg, iv and 10.5 mg/kg, po; assay type: ADME, organism-based; conditions: in vivo, read-out: Vdss
[25] = Cmax in rat at 1.7 mg/kg, iv and 10.5 mg/kg, po; assay type: ADME, organism-based; conditions: in vivo
[26] = Bioavailability in rat at 1.7 mg/kg, iv and 10.5 mg/kg, po; assay type: ADME, organism-based; conditions: in vivo
[27] = target: ALK tyrosine kinase receptor (Homo sapiens, UniProt Q9UM73); test: Inhibition of ALK
Chain of ALK tyrosine kinase receptor (Q9UM73 whole entry): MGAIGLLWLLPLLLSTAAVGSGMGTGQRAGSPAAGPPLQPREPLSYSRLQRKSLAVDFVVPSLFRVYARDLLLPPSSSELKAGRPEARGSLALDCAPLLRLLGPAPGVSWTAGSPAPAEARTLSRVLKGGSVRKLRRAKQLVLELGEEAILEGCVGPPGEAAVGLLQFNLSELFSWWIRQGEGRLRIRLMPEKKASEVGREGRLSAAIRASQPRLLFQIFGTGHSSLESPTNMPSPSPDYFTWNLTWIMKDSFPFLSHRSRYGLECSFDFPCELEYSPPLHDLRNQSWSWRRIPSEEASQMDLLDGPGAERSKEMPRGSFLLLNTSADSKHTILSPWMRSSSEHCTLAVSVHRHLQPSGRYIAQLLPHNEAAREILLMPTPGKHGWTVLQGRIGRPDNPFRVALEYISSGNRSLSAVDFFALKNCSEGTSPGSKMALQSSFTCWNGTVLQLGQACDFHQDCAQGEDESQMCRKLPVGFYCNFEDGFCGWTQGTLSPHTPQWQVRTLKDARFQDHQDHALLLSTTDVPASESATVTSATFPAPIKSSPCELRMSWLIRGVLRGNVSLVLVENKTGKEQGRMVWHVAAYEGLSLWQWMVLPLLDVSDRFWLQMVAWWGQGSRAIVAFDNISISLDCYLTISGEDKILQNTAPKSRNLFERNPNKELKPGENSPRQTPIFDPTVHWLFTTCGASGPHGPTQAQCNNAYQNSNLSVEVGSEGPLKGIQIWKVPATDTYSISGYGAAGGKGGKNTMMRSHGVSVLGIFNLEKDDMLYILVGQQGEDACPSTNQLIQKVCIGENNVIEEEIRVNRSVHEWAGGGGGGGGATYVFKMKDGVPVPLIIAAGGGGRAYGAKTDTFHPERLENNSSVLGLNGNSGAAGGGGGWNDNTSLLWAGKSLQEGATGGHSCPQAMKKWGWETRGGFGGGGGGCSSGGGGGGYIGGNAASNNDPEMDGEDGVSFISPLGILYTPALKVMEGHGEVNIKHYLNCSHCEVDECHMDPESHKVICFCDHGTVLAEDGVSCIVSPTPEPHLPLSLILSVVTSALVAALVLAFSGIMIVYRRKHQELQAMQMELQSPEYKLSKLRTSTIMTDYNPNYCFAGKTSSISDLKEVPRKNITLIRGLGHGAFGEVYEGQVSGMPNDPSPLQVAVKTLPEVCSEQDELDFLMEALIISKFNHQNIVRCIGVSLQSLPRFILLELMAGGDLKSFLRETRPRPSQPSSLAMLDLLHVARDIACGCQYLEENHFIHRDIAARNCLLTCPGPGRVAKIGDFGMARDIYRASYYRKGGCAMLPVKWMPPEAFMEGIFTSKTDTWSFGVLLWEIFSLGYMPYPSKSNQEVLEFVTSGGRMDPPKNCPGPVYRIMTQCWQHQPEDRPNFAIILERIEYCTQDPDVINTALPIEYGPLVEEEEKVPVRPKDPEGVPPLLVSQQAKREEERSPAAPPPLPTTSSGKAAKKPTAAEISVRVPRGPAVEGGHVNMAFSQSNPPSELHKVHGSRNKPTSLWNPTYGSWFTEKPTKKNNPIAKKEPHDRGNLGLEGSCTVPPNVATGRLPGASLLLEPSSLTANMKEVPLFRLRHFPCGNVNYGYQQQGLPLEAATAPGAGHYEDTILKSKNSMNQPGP

[28] = target: Insulin receptor (Homo sapiens, UniProt P06213); test: Inhibition of human IR
Chain of Insulin receptor (P06213 28-758 limits assumed): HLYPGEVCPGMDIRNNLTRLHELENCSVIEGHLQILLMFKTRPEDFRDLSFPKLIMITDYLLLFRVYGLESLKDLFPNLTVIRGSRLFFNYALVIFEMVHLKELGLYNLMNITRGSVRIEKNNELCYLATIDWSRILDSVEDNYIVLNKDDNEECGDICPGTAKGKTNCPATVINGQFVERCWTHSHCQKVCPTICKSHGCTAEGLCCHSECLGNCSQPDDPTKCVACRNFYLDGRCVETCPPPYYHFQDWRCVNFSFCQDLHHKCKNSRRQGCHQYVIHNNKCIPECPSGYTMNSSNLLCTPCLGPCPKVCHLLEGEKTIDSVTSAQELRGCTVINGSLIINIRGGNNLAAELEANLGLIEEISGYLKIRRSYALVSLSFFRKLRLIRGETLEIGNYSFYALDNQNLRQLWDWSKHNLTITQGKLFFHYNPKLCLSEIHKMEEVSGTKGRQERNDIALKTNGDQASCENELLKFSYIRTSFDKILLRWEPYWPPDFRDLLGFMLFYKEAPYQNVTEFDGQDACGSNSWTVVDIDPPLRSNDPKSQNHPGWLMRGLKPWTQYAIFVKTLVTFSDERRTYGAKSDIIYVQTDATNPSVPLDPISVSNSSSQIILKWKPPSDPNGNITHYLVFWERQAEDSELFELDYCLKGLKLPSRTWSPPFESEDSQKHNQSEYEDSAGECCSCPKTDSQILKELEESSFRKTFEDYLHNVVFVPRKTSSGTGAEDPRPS
Chain of Insulin receptor (P06213 763-1382 limits assumed): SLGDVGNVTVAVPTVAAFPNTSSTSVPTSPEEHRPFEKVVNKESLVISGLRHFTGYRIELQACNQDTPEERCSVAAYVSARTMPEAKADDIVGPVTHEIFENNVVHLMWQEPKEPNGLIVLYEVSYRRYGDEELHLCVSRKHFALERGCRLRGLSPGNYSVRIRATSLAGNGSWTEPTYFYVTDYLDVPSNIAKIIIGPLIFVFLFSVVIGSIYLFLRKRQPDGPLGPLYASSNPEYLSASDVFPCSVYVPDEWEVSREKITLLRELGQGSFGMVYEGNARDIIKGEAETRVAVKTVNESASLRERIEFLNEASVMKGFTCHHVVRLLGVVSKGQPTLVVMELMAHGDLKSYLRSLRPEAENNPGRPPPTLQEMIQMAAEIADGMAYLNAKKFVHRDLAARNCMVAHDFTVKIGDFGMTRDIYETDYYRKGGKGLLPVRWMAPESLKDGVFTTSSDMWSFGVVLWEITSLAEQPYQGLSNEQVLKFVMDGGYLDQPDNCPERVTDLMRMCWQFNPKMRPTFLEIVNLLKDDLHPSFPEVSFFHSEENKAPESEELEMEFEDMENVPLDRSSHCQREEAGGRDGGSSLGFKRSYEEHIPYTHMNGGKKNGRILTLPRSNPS

[29] = target: Mitogen-activated protein kinase 8 (Homo sapiens, UniProt P45983); test: Inhibition of JNK1
Chain of Mitogen-activated protein kinase 8 (P45983 whole entry): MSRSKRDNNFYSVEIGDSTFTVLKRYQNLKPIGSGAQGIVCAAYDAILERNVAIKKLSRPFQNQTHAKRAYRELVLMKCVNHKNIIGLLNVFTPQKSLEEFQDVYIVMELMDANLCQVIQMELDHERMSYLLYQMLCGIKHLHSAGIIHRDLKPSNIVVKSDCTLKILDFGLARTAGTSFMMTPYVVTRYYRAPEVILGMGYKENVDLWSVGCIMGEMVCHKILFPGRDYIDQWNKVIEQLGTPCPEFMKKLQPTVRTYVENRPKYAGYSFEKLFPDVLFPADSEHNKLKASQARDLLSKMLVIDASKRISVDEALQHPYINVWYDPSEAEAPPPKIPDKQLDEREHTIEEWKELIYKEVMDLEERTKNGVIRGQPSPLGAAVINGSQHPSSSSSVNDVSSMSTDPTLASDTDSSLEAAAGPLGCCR

T1 sequence (P08069 31-736 limits assumed): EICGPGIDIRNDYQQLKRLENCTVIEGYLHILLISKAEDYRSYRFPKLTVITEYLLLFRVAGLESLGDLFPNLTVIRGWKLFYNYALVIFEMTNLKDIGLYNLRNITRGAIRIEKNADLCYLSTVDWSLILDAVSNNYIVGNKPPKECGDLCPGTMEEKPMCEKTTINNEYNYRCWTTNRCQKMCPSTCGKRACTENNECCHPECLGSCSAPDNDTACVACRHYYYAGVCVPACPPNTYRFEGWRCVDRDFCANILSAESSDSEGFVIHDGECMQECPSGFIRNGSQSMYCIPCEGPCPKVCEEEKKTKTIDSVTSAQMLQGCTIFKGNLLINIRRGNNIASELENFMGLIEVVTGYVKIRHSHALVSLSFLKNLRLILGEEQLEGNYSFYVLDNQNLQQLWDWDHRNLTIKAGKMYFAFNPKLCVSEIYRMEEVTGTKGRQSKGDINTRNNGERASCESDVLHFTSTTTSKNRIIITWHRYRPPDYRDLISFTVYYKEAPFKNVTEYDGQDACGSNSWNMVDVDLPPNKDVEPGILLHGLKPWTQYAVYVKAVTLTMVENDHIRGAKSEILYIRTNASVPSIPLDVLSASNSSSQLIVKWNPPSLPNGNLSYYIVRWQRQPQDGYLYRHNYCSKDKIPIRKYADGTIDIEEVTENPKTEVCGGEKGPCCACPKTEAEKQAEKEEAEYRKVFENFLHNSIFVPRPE
T1 sequence (P08069 741-1367 limits assumed): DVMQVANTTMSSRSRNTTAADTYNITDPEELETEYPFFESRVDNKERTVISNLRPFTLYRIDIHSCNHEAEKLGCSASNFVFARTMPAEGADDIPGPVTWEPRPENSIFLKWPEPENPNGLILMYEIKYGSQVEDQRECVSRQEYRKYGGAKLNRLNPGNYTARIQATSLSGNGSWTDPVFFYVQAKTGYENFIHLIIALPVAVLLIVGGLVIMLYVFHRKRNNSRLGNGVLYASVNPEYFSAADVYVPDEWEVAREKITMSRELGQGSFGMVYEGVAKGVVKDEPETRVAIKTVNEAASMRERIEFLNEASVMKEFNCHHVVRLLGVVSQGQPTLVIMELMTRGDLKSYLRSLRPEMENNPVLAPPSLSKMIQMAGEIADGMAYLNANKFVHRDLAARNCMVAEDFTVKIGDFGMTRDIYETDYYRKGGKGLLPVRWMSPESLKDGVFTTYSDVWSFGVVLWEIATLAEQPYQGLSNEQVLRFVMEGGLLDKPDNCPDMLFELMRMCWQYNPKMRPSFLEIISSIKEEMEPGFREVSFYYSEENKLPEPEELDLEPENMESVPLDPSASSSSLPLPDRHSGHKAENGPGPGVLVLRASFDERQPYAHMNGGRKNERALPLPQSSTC

Compound | IC50 [1] | IC50 [2] | further results
CCCN1CCC=C(c2ccc(Nc3nc(Nc4ccccc4C(N)=O)c4cc[nH]c4n3)c(F)c2)C1 | 317 nM | 1.6 nM | IC50 [3]: 1600 nM
COc1cc(N2CCN(C(C)C)CC2)ccc1Nc1nc(Nc2cc(F)ccc2C(N)=O)c2cc[nH]c2n1 | 130 nM | 0.8 nM | –
COc1cc(N2CCN(C(C)C)CC2)ccc1Nc1nc(Nc2ccc(F)c(F)c2C(N)=O)c2cc[nH]c2n1 | 213 nM | – | –
COc1cc(N2CCN(C(C)C)CC2)ccc1Nc1nc(Nc2cc(F)cc(F)c2C(N)=O)c2cc[nH]c2n1 | 90 nM | – | Cmax [4]: 200 ng/mL; AUC [5]: 117 ng·h/mL/mg/kg; clearance [6]: 46 mL/min/kg; Vdss [7]: 11 L/kg; bioavailability [8]: 37%
COc1cc(C)c(N2CCN(C(C)C)CC2)cc1Nc1nc(Nc2cccc(F)c2C(N)=O)c2cc[nH]c2n1 | 270 nM | 20 nM | –
CCCN1CCC=C(c2ccc(Nc3nc(Nc4ccccc4C(N)=O)c4cc[nH]c4n3)c(C(F)(F)F)c2)C1 | > 10000 nM | 20 nM | –
COc1c(Nc2nc(Nc3cccc(F)c3C(N)=O)c3cc[nH]c3n2)ccc(N2CCN(C(C)C)CC2)c1F | 574 nM | 4 nM | –
CCCN1CCC=C(c2ccc(Nc3nc(Nc4cc(F)ccc4C(N)=O)c4cc[nH]c4n3)c(OC(C)C)c2)C1 | 2240 nM | 3.2 nM | –
COc1cc(N2CCN(C(C)C)CC2)ccc1Nc1nc(Nc2cc(F)c(F)cc2C(N)=O)c2cc[nH]c2n1 | 53 nM | 0.5 nM | Cmax [9]: 152 ng/mL; clearance [10]: 64 mL/min/kg; Vdss [11]: 17 L/kg; AUC [12]: 114 ng·h/mL/mg/kg; bioavailability [13]: 45%
CNC(=O)c1c(F)cccc1Nc1nc(Nc2ccc(N3CCN(C(C)C)CC3)cc2OC)nc2[nH]ccc12 | 370 nM | 5 nM | clearance [14]: 32 mL/min/kg; Vdss [15]: 22.3 L/kg; bioavailability [16]: 83%; Cmax [17]: 418 ng/mL; AUC [18]: 277 ng·h/mL/mg/kg
COc1cc(N2CCN(C(C)C)CC2)ccc1N(C)c1nc(Nc2cccc(F)c2C(N)=O)c2cc[nH]c2n1 | – | 50 nM | –
COc1cc(N2CCN(C(C)C)CC2)ccc1Nc1nc(Nc2cccc(F)c2C(N)=O)c2ccn(C)c2n1 | – | 10000 nM | –
COc1cc(N2CCN(C(C)C)CC2)c(OC)cc1Nc1nc(Nc2cccc(F)c2C(N)=O)c2cc[nH]c2n1 | 90 nM | 3.2 nM | –
COc1cc(N2CCN(C(C)C)CC2)ccc1Nc1nc(Nc2ccc(F)cc2C(=O)NO)c2cc[nH]c2n1 | 613 nM | 6.3 nM | –
COc1cc(N2CCN(C(C)C)CC2)c(F)cc1Nc1nc(Nc2cccc(F)c2C(N)=O)c2cc[nH]c2n1 | 190 nM | 2 nM | –
COc1cc(N2CCN(C(C)C)CC2)c(C)cc1Nc1nc(Nc2cccc(F)c2C(N)=O)c2cc[nH]c2n1 | 38 nM | 2 nM | –
CCCN1CCC=C(c2ccc(Nc3nc(Nc4cc(F)ccc4C(N)=O)c4cc[nH]c4n3)c(OC)c2)C1 | 82 nM | 0.8 nM | –

Compound | IC50 [1] | IC50 [2] | further results
CCCN1CCN(c2ccc(Nc3nc(Nc4cc(F)ccc4C(N)=O)c4cc[nH]c4n3)c(OC)c2)CC1 | 122 nM | 1.6 nM | –
CCCN1CCC=C(c2ccc(Nc3nc(Nc4ccccc4C(N)=O)c4cc[nH]c4n3)cc2)C1 | – | 1.6 nM | IC50 [3]: 5 nM
COc1cc(N2CCOCC2)ccc1Nc1nc(Nc2cc(F)ccc2C(N)=O)c2cc[nH]c2n1 | 68 nM | 1.6 nM | –
COc1cc(N2CCN(C(C)C)CC2)ccc1Nc1nc(Nc2ccc(F)cc2C(=O)NCCO)c2cc[nH]c2n1 | 650 nM | 5 nM | –
COc1cc(N2CCN(C(C)C)CC2)ccc1Nc1nc(Nc2cccc(F)c2C(N)=O)c2cc[nH]c2n1 | 109 nM | – | AUC [19]: 156 ng·h/mL/mg/kg; Vd [20]: 18.5 L/kg; Cmax [21]: 184 ng/mL
COCCNC(=O)c1cc(F)ccc1Nc1nc(Nc2ccc(N3CCN(C(C)C)CC3)cc2OC)nc2[nH]ccc12 | 760 nM | 25 nM | –
COc1cc(N2CCN(C(C)C)CC2)c(Cl)cc1Nc1nc(Nc2cccc(F)c2C(N)=O)c2cc[nH]c2n1 | 65 nM | 1.6 nM | –
COc1cc(N2CCN(C(C)C)CC2)ccc1Nc1nc(Nc2ccccc2C(N)=O)c2cc[nH]c2n1 | 71 nM | 1 nM | clearance [22]: 142 mL/min/kg; AUC [23]: 35 ng·h/mL/mg/kg; Vd [24]: 19.5 L/kg; Cmax [25]: 69 ng/mL; bioavailability [26]: 37%
CCCN1CCC=C(c2ccc(Nc3nc(Nc4ccccc4C(N)=O)c4cc[nH]c4n3)c(OC)c2)C1 | 104 nM | 0.6 nM | IC50 [3]: > 10000 nM
CNC(=O)c1cc(F)ccc1Nc1nc(Nc2ccc(N3CCN(C(C)C)CC3)cc2OC)nc2[nH]ccc12 | 135 nM | 3.2 nM | –
COc1c(Nc2nc(Nc3cccc(F)c3C(N)=O)c3cc[nH]c3n2)ccc(N2CCN(C(C)C)CC2)c1C | 3700 nM | 8 nM | –
COc1ccc(N2CCN(C(C)C)CC2)cc1Nc1nc(Nc2cccc(F)c2C(N)=O)c2cc[nH]c2n1 | 160 nM | 4 nM | –
CCCN1CCCC(c2ccc(Nc3nc(Nc4cc(F)ccc4C(N)=O)c4cc[nH]c4n3)c(OC)c2)C1 (racemic) [GSK-1173862A] | 60 nM | 0.4 nM | –
CCCN1CCC=C(c2ccc(Nc3nc(Nc4ccccc4C(N)=O)c4cc[nH]c4n3)c(C)c2)C1 [GSK-994854A] | – | 5 nM | IC50 [27]: 1 nM; IC50 [28]: 6.3 nM; IC50 [29]: 12 nM
COc1cc(N2CCN(C(C)C)CC2)ccc1Nc1nc(Nc2ccc(F)cc2C(N)=O)c2cc[nH]c2n1 [GSK-1220512A] | 60 nM | 0.8 nM | –
CCCN1CCC(c2ccc(Nc3nc(Nc4cc(F)ccc4C(N)=O)c4cc[nH]c4n3)c(OC)c2)CC1 [GSK-1326255A] | 47 nM | 0.3 nM | –
COc1cc(N2CCN(C(C)C)CC2)ccc1Nc1nc(Nc2ccc(F)cc2C(=O)NC[C@@H](O)CO)c2cc[nH]c2n1 [GSK-1392956A] | 5600 nM | 16 nM | –
